Test results published in patent publication US6297230A, “Cyanoaziridines for treating cancer” (priority 2000, dated 2001).
Converted amounts (≈) assume the structure as drawn. “Also recorded” adds a separate entry of the source.

What was measured:
Format in all cases: cell-based, human
[1] = test system: OVCAR-3 ovarian carcinoma cells; test: In vitro antitumor activity, OVCAR-3 ovarian; details: Homo sapiens, OVCAR-3; OVCAR3 ovarian; read-out: IC50
From the text: (§1) 1) in vitro tumor cell viability assays using MTT and SRB dye reaction endpoints.
(§2) Sulforhodamine B (SRB) Assay for Adherent Tumor Cells
(§3) Sulforhodamine B (SRB) is a protein binding aminoxanthene dye with two sulfonic acid groups. (Lillie, R. D., H. J. Conn's Biological Stains, 9th Ed., Baltimore; Williams & Wilkins, 1977.) It quantitates whole cell protein content by the intensity of dye staining and relates this to the number of viable cells. […] The SRB assay is used for cells which normally adhere to surfaces (in this case plastic culture flasks or petri dishes) as part of their requirement for growth and division in vitro. The SRB assay is currently used by the National Cancer Institute in the anticancer drug screening program. (Skehan, et al., J Natl Cancer Inst 82:1107-1112, 1990; Rubinstein, et al., J Natl Cancer Inst 82:1113-1118, 1990.) Methodologic comparisons have shown that SRB results are linear for the number of tumor cells over a 100-fold range, and for protein content determined by a modified Lowry method or Standard Bradford (Bradford, M., Anal Biochem 72:248-254, 1976) methods. […] (Lillie, R. D., H. J. Conn's Biological Stains, 9th Ed., Baltimore; Williams & Wilkins, 1977.)
(§4) Cell cultures of 10^3 -10^7 cells growing in 96-well plastic microtiter plates are fixed with 50% trichloroacetic acid (TCA) for 30 minutes at 4° C. The cells are then stained with 0.4% (w/v) sulforhodamine B (SRB) dissolved in 1% acetic acid. Unbound dye is removed by 4 washes with 1% acetic acid, and protein-bound dye is extracted with 10 mM unbuffered Tris® base [tris(hydroxymethyl)aminomethane]. The optical density (OD) of this extracted solution is measured at […] in a microtiter plate ultraviolet absorbance detector. Cell viability is expressed as percent of control by dividing the optical densities and multiplying the result by 100.
(§5) Microculture Tetrazolium (MTT) Assay for Tumor Cells
(§6) Tumors are disaggregated into single cell suspensions using mechanical, hypoosmotic, and/or enzymatic (trypsin) methods. The cells are plated at a concentration of 3-5×10^4 per […] well into plastic 96-well plates. Growth medium containing 5-10% (vol/vol) heat-inactivated fetal bovine serum and penicillin/streptomycin (both […]) are added prior to incubation at 37° C. for 6 days. Afterwards the medium containing the drug is removed, the cells are centrifuged in fresh medium or phosphate-buffered saline (pH 7.4). A tetrazolium dye, […]-2,5-diphenyl tetrazolium (MTT), is then added. (Mossman, T., J Immunol 65:55-63, 1983.) This dye forms a colored formazan product upon activation by mitochondrial reductases in viable cells. Typically, the formazan product is solubilized in acid-propanol or DMSO. The intensity of the color is proportional to viable cell numbers and this is quantitated by spectrophotometric absorbance at 570 nm on a micro ELISA plate reader. The results are calibrated in % control absorbance from untreated tumor cells. (Alley, et al., Cancer Res 48:589-601, 1988.)
(§7) Table 3 gives the potencies of the new aziridine-1-carboxamides in a panel of human and murine tumor cells in culture. The tumor cell lines in this table are selected to represent a range of histological and growth phenotypes. Their characteristics are described below.
5.0 Human OVCAR-3 Ovarian Carcinoma was originally isolated by Hamilton, et al. Experimental model systems of ovarian cancer; applications to the design and evaluation of new treatment approaches. Seminar in Onocology, 11:285-298, 1984, from a patient with progressive adenocarcinoma of the ovary. This patient had relapsed after receiving a combination chemotherapy regimen containing cyclophosphamide, doxorubicin and cisplatin. […] It is also one of the standard human tumor cell lines used for screening new anticancer agents at the NCI. (Alley, et al., Cancer Res 48:589-601, 1988.)

[2] = test system: A-375 malignant melanoma cells; test: In vitro antitumor activity, A-375 melanoma; details: Homo sapiens, read-out: IC50
From the text: as §1, §2, §3, §4, §5, §6, §7
4.0 The Human A-375 Malignant Melanoma Cell Line was also developed by Girard, et al. (Girard, et al., J Natl Cancer Inst 51(5):1417-1423, 1973) from a human with advanced melanoma. The modal chromosome number is 67 and it has a low plating (colony forming) efficiency of 0.7% when grown on agar. These cells also form rapidly growing tumors when injected subcutaneously into immunodeficient athymic (nu/nu) mice. (Girard, et al., J Natl Cancer Inst 51(5):1417-1423, 1973.) These cells are also used in the NCI drug screening panel. (Skehan, et al., J Natl Cancer Inst 82:1107-1112, 1990.)

[3] = test system: 8226/I-R myeloma cells; test: MTT growth inhibition, imexon-resistant 8226 myeloma cells; details: for Cross-resistance with imexon: 8226 imexon-resistant vs parental; for IC50: Homo sapiens, imexon-resistant 8226, read-out: IC50; for IC50 / Fold Resistance of IC50 R/IC50 's: Table 5; for Fold Resistance of IC50 R/IC50 's: imexon-resistant vs sensitive 8226
Method: as §5, §6
(§8) The following unpublished studies were performed in vitro to develop and characterize a human myeloma cell line with resistance to imexon-induced cytotoxicity. The original (parental) 8226 cell line was developed by Matsuoka, et al. (Matsuoka, et al., Proc Soc Exp Biol Med 125:1246-1250, 1967). It is a lymphoblastoid cell line which stains for lambda light immunoglobulin production. It grows in vitro in suspension culture (non-adherent) and forms tumors when injected into SCID mice. (Skehan, et al., J Natl Cancer Inst 82:1107-1112, 1990.)
(§9) One exciting feature of our novel compounds is, that they work on imexon-resistant cells. An imexon-resistant 8226 myeloma cell line was selected by continuously exposing cells to gradually increasing concentrations of imexon up to 3.25 mg/mL. This cell line has slightly longer cell doubling time than 8226 sensitive cells (24 vs 20 hours). […] The dose response curve for imexon continuous exposure was determined using MTT assay. Each data point represents the mean of three experiments performed in 8 replicates.
(§10) We compared IC50 concentrations and there is a 4-fold resistance observed for the 8226/I-R cell line when the cells were continuously exposed to imexon for […] at 37° C. The degree of resistance was relatively unstable in the absence of the drug, with the resistant cells losing substantial resistance when maintained in imexon-free medium for 20 weeks (FIG. 2).
(§11) IC50 was measured by MTT assay. IC50 refer to the concentration by drug that results in 50% growth inhibition. A minimum of 2 assays were performed for each drug following 250 mg/mL imexon is equivalent to 6.5 cGy radiation in sensitive cells.
(§12) Using the colorimetric microculture tetrazolium (MTT) assay, imexon and 25-related analogs were studied for tumor growth inhibition in vitro. Imexon-induced DNA single strand breaks were assessed by alkaline elution. Cells were exposed to imexon for 1 hour prior to start of experiment. The fraction of ^14 C-labeled DNA retained on the filter is plotted against the time of elution. The cells included parental 8226 myeloma cells and the 8226 imexon-resistant cells exposed to drug (imexon or analog) continuously for 10 days at 37° C. At the end of the exposure period, the cells were analyzed for viability using the formazan-forming tetrazolium dye (MTT) assay.

[4] = test system: 8226/S myeloma cells; test: MTT growth inhibition, parental 8226 myeloma cells; details: for IC50: Homo sapiens, Table 5, Sensitive (parental) 8226, read-out: IC50; for Enhanced potency: decrease in IC50 against myeloma cell growth: compared with imexon; for Potency relative to imexon: myeloma cells
Method: as §5, §6, §8, §9, §10, §11, §12

Compound	IC50 [1] [µg/mL]	IC50 [2] [µg/mL]	Cross-resistance with imexon [3]	IC50 [3] [µg/mL]	Fold Resistance of IC50 R/IC50 's [3]	IC50 [4] [µg/mL]	Enhanced potency: decrease in IC50 against myeloma cell growth [4] [%]	Potency relative to imexon [4]	Antitumor effect ([4]; parental and imexon-resistant myeloma cells)
CNC(=O)N1CC1C#N (stereo not drawn) [AMP 403, 2-Cyanoaziridine-1-(N-methyl)carboxamide]	1.7	2.1 (≈ 16.8 µM)	lack of significant (>50% IC50 change) cross-resistance with imexon	3.3 (≈ 26.4 µM)	1.0	3.3 (≈ 26.4 µM)			
N#CC1CN1C(=O)Nc1ccccc1 (stereo not drawn) [AMP 404, 2-Cyanoaziridine-1-(N-phenyl)carboxamide]	1.3	2.1 (≈ 11.2 µM)	lack of significant (>50% IC50 change) cross-resistance with imexon	1.5 (≈ 8.01 µM)	1.5	1 (≈ 5.34 µM)			
CCNC(=O)N1CC1C#N (stereo not drawn) [AMP 406, 2-Cyanoaziridine-1-(N-ethyl)carboxamide]	2	5 (≈ 35.9 µM)		3.6 (≈ 25.9 µM)	1.2	3.1 (≈ 22.3 µM)			
N#CC1CN1C(=O)Nc1ccc(Cl)cc1Cl (stereo not drawn) [AMP 407, 2-Cyanoaziridine-1-[N-(2,4-dichlorophenyl)]carboxamide]	0.6	2 (≈ 7.81 µM)		2.4 (≈ 9.37 µM)	2.0	1.2 (≈ 4.69 µM)	> 40		
CC(C)(C)NC(=O)N1CC1C#N (stereo not drawn) [AMP 410, 2-Cyanoaziridine-1-(N-t-butyl)carboxamide]	31.1	69.9 (≈ 418 µM)		36 (≈ 215 µM)	1.8	20 (≈ 120 µM)			
N#CC1CN1C(=O)NCc1ccccc1 (stereo not drawn) [AMP 412, 2-Cyanoaziridine-1-(N-benzyl)carboxamide]	1	2.2 (≈ 10.9 µM)	lack of significant (>50% IC50 change) cross-resistance with imexon; also recorded: no significant cross resistance	2.2 (≈ 10.9 µM)	1.2	1.8 (≈ 8.95 µM)		roughly equal potency to imexon	
N#CC1CN1C(=O)NC1CCCCC1 (stereo not drawn) [AMP 413, 2-Cyanoaziridine-1-(N-cyclohexyl)carboxamide]	5.9	6.7 (≈ 34.7 µM)		19 (≈ 98.3 µM)		7 (≈ 36.2 µM)			
CCCCNC(=O)N1CC1C#N (stereo not drawn) [AMP 414, 2-Cyanoaziridine-1-(N-butyl)carboxamide]	2	2.5 (≈ 15 µM)	lack of significant (>50% IC50 change) cross-resistance with imexon	2.8 (≈ 16.7 µM)	1.0	2.8 (≈ 16.7 µM)			
N#CC1CN1C(=O)Nc1ccc(F)cc1 (stereo not drawn) [AMP 415, 2-Cyanoaziridine-1-[N-(4-fluorophenyl)]carboxamide]	1.2	0.7 (≈ 3.41 µM)	lack of significant (>50% IC50 change) cross-resistance with imexon; also recorded: no significant cross resistance	1.2 (≈ 5.85 µM)	1.2	1 (≈ 4.87 µM)	> 40	roughly equal potency to imexon	
N#CC1CN1C(=O)Nc1ccc(C(F)(F)F)cc1 (stereo not drawn) [AMP 416, 2-Cyanoaziridine-1-[N-(4-trifluorophenyl)]carboxamide]	1.5	3 (≈ 11.8 µM)	lack of significant (>50% IC50 change) cross-resistance with imexon; also recorded: no significant cross resistance	2 (≈ 7.84 µM)	0.95	2.1 (≈ 8.23 µM)		roughly equal potency to imexon	
N#CC1CN1C(=O)Nc1ccc([N+](=O)[O-])cc1 (stereo not drawn) [AMP 417, 2-Cyanoaziridine-1-[N-(4-nitrophenyl)]carboxamide]	1.5	0.9 (≈ 3.88 µM)	lack of significant (>50% IC50 change) cross-resistance with imexon; also recorded: no significant cross resistance	2 (≈ 8.61 µM)	0.95	2.1 (≈ 9.04 µM)		roughly equal potency to imexon	
CCOC(=O)c1ccc(NC(=O)N2CC2C#N)cc1 (stereo not drawn) [AMP 419, 2-Cyanoaziridine-1-[N-(4-ethoxycarbonylphenyl)]carboxamide]	1.5	2 (≈ 7.71 µM)	lack of significant (>50% IC50 change) cross-resistance with imexon						
CCOC(=O)CNC(=O)N1CC1C#N (stereo not drawn) [AMP 420, 2-Cyanoaziridine-1-[N-(ethoxycarbonyl)methyl]carboxamide]	10	10 (≈ 50.7 µM)	lack of significant (>50% IC50 change) cross-resistance with imexon	6 (≈ 30.4 µM)	1.2	5 (≈ 25.4 µM)			
N#CC1CN1C(=O)Nc1cccnc1 (stereo not drawn) [AMP 421, 2-Cyanoaziridine-1-[N-(3-pyridyl)]carboxamide]	1.9	2.3 (≈ 12.2 µM)	lack of significant (>50% IC50 change) cross-resistance with imexon	2.8 (≈ 14.9 µM)	1.3	2.2 (≈ 11.7 µM)			
N#CC1CN1C(=O)Nc1ccc(S(N)(=O)=O)cc1 (stereo not drawn) [AMP 422, 2-Cyanoaziridine-1-[N-(4-sulfamylphenyl)]carboxamide]	50	50 (≈ 188 µM)		< 100		> 100			no antitumor effects even at high concentrations
